Assay results published in US20170066797A1, “WITHAFERIN A ANALOGS AND USES THEREOF” (Whitehead Institute for Biomedical Research, priority 2008, published 2017).

What was measured:
[1] = test system: Human umbilical vein endothelial cells (HUVEC); test: Endothelial cell network (tube) formation on Matrigel; format: cell-based; details: 16 h, FIG. 6
Description: FIG. 6. […] Human umbilical vein endothelial cells (HUVEC) were seeded into Matrigel-coated wells and allowed to adhere for 1 h. Adherent cells were exposed to the indicated concentrations of withaferin A, epi-withaferin A (α-WA) or an equal volume of solvent vehicle (DMSO) for 16 h. Cells were washed 1× in PBS and fixed to visualize tube formation by light microscopy.

[2] = test system: Ewing's sarcoma cells (CHP-100); details: 72 hours, MTT, FIG. 5
Source text: Relative viable cell number was quantified by MTT assay. Results are presented as a percentage compared to wells exposed to DMSO alone. […] Points: mean of triplicate determinations; Error bars: s.d.

[3] = Conversion of 2,3-dihydrowithaferin A-3β-O-sulfate to withaferin A in cell culture media (HPLC); format: physicochemical; details: DMEM + 10% fetal bovine serum, 37° C., 4, 16, 24 h, FIG. 2
Description: FIGS. 2A and 2B. Conversion of 2,3-dihydrowithaferin A-3β-O-sulfate (solid circles) to withaferin A (solid squares) in cell culture medium. (A) Incubation of 2,3-dihydrowithaferin A-3β-O-sulfate in DMEM supplemented with 10% fetal bovine serum. (B) Incubation in cysteine/methionine-free DMEM supplemented with 10% fetal bovine serum. The concentration of 2,3-dihydrowithaferin A-3β-O-sulfate (solid circles) and its conversion to withaferin A (solid squares) was measured over time by HPLC using an external standard curve method.
Stock solutions of 2,3-dihydrowithaferin A-3β-O-sulfate in DMSO (50 μL) were diluted into cell culture medium (950 μL) to achieve the indicated starting concentration, mixed thoroughly and the solution incubated in a CO2 incubator at 37° C. Aliquots (100 μL) were withdrawn at 4, 16, and 24 h and subjected to HPLC analysis for 2,3-dihydrowithaferin A-3β-O-sulfate (RRT=18.5 min) and withaferin A (RRT=23.5 min) on a Kromasil C18 RP column (250×4.6 mm, […]) with gradient elution using 40-100% aqueous MeOH and using an ELSD detector. An external standard curve method was used to calculate the concentration of each compound in the sampled aliquots (Khajuria, et al., J Sep. Sci. (2004) 27: 541-546, incorporated herein by reference).

[4] = test system: minimal heat shock response element derived from the promoter region of the Hsp70B gene; test: Heat shock reporter (EGFP) induction; format: cell-based; details: overnight exposure, FIG. 8
Description: FIG. 8. Heat shock reporter induction measured by micro plate fluorimeter. Reporter cells stably transduced with a plasmid encoding enhanced green fluorescent protein (EGFP) under the control of a minimal heat shock response element were exposed to 2,3-dihydrowithaferin A-3β-O-sulfate (WA-SO4) or withaferin A (WA) at the indicated concentrations overnight. Relative fluorescence units (RFU) per well were determined as a measure of reporter activation. Each point represents the mean of nine determinations from three independent experiments.
Immortalized mouse embryo fibroblasts derived from homozygous Hsf1 knockout mice or their wild type littermates were exposed overnight to equitoxic concentrations of 1 or the known heat shock-inducing Hsp90 inhibitor gendanamycin. Whole cell lysates were prepared in non-ionic detergent buffer and immunoblotted for relative levels of Hsp72, a highly inducible member of the Hsp70 family of molecular chaperones, using monoclonal antibody C92F3A-5 (StressMarq Biosciences, Victoria, BC). Reactivity was detected using peroxidase-conjugated secondary antibody and chemiluminescent detection. To evaluate the relative ability of compounds to induce a heat shock response at the transcriptional level, a reporter cell line was used as previously described (Turbyville, et al., J. Nat. Prod. (2006) 69: 178-184, incorporated herein by reference). […]

[5] = test system: NCI-H460 (non small cell lung); test: Proliferation/survival assay, NCI-H460; format: cell-based; details: same time dependence as in MCF-7
Description: (§1) A standard tetrazolium dye [3-(4,5-di-methylthiazol-2-yl)-2,5-diphenyltetrazoliumbromide; MTT]-based colorimetric assay was used to measure the proliferation/survival of cells in triplicate wells using a 96-well plate-based format. […] Cells were exposed continuously to test compounds for 24 or 72 h at which times related viable cell number per well was determined as previously described (Wijeratne, et al., J Nat. Prod. (2003) 66: 1567-1573, incorporated herein by reference).

[6] = test system: PC-3M (metastatic prostate cancer); test: Proliferation/survival assay, PC-3M; format: cell-based; details: same time dependence as in MCF-7
Description: as §1

[7] = test system: MCF-7 breast cancer cells; test: MTT proliferation/survival (cytotoxicity) assay, MCF-7; format: cell-based
Source text: FIG. 1. Concentration- and time-dependent cell proliferation/survival inhibition by 2,3-dihydrowithaferin A-3β-O-sulfate (WA-SO4) and withaferin A (WA). MCF-7 breast cancer cells were exposed to the indicated concentrations of compounds and relative viable cell number determined by dye reduction assay after the time intervals noted. Data are representative of three independent experiments.
as §1

[8] = test system: WI-38 fibroblasts; test: Detection of F-actin aggregation (phalloidin staining); format: cell-based, Human; details: 4 μM, 4 or 24 h, FIG. 3
Description: FIGS. 3A-3D. Induction of F-actin aggregation. Following incubation with test compounds for the indicated intervals, WI-38 fibroblasts were fixed and stained with fluorescently-labeled phalloidin (green signal) to visualize the actin cytoskeleton. Cells were counterstained with DAPI (blue signal) to identify their nuclei. All images were acquired using the same magnification and exposure conditions. Data are representative of two independent experiments. (A) DMSO, 24 h incubation. (B) Withaferin A, 4 h. (C) 2,3-Dihydrowithaferin A-3β-O-sulfate, 4 h. (D) 2,3-Dihydrowithaferin A-3β-O-sulfate, 24 h.
Cells were seeded in 8-well chamber slides at a density of 2×10^4 cells per well and allowed to adhere for 48 h. Compounds 1 and 2 were freshly prepared as 5 mM stock solutions in DMSO and applied to cells at a final concentration of 4 μM in RPMI culture medium supplemented with 10% fetal bovine serum, Glutamax™, and penicillin/streptomycin. Control wells were treated with an equal volume of DMSO, not exceeding 0.2% in culture media. Cells were incubated for 4 or 24 h in the continuous presence of the indicated compounds, then washed twice with PBS, fixed with 4% paraformaldehyde/PBS (pH 7.6), and permabilized with 0.1% triton-X 100/PBS. […]

Row | Compound | inhibition of endothelial cell network formation [1] | inhibition of tumor cell growth in vitro, CHP-100 [2] | conversion to withaferin A in cell culture media [3] | heat shock reporter induction [4] | proliferation/survival inhibition compared with withaferin A, NCI-H460 [5] | proliferation/survival inhibition compared with withaferin A, PC-3M [6] | potency compared with withaferin A, MCF-7 ([7]; after ca. 72 hours) | inhibition of the proliferation/survival of MCF-7 breast cancer cells ([7]; dye reduction (MTT) assay, 24 or 72 h, FIG. 1) | induction of F-actin aggregation [8]
1 | CC1=C(CO)C(=O)OC([C@@H](C)C2CCC3C4C[C@H]5O[C@]56[C@H](O)C=CC(=O)[C@]6(C)C4CC[C@@]32C)C1 (stereo partly drawn) [epi-withaferin A] | Inhibition of endothelial cell network formation | Concentration-dependent inhibition of tumor cell growth in vitro | – | – | – | – | – | – | –
2 | CC1=C(CO)C(=O)OC(C(C)C2CC[C@H]3[C@@H]4C[C@H]5O[C@]56[C@@H](O)[C@@H](OS(=O)(=O)O)CC(=O)[C@]6(C)[C@H]4CC[C@]23C)C1 (stereo partly drawn) [2,3-dihydrowithaferin A-3β-O-sulfate] | – | – | conversion of dihydrowithaferin A-3β-O-sulfate to withaferin A in cell culture media | induces a robust heat shock response after overnight treatment of cells, albeit at higher concentrations than that of withaferin A | same results | same results | equipotent with withaferin A | concentration- and time-dependent inhibition | induced F-actin aggregation, but dihydrowithaferin A-3β-O-sulfate required a longer period of time
